Bounds are passed on as bounds.

The source of these data is ChEMBL document CHEMBL3860056, “In vitro and in vivo inhibitory activity of 6-amino-2,4,5-trimethylpyridin-3-ols against inflammatory bowel disease” (Bioorg Med Chem Lett, 2016).

Experiment [1] is described as follows: Antiinflammatory activity in human HT-29 cells assessed as inhibition of TNF-alpha induced BCECF-AM labeled human U937 cell adhesion at 1 uM preincubated for 1 hr followed by stimulation with TNF-alpha for 3 hrs followed by further co-incubation with BCECF-AM labeled human U937 cells for 1 hr by fluorescent/light microscopic analysis. It counts as functional.

A short description of experiment [2]: Antiinflammatory activity in human HT-29 cells assessed as inhibition of TNF-alpha induced BCECF-AM labeled human U937 cell adhesion preincubated for 1 hr followed by stimulation with TNF-alpha for 3 hrs followed by further co-incubation with BCECF-AM labeled human U937 cells for 1 hr by fluorescent/light microscopic analysis. It counts as functional, cell-based.

In experiment [3] the test system is Rattus norvegicus. The experiment is described as follows: Antiinflammatory activity in TNBS-induced Sprague-Dawley rat colitis model assessed as body weight recovery at 0.1 mg/kg/day, po administered for 5 days post 1 day of TNBS-challenge measured daily during compound dosing relative to control. It is filed as functional.
Experiment [4] has as its system Rattus norvegicus. The experiment is described as follows: Antiinflammatory activity in TNBS-induced Sprague-Dawley rat colitis model assessed as body weight recovery at 1 mg/kg/day, po administered for 5 days post 1 day of TNBS-challenge measured daily during compound dosing relative to control. It counts as functional.
The subject of experiment [5] is Rattus norvegicus. The experiment is described as follows: Antiinflammatory activity in TNBS-induced Sprague-Dawley rat colitis model assessed as body weight recovery at 10 mg/kg/day, po administered for 5 days post 1 day of TNBS-challenge measured daily during compound dosing relative to control. It counts as functional.
The test system of experiment [6] is Rattus norvegicus. Kind of experiment: Antiinflammatory activity in po dosed TNBS-induced Sprague-Dawley rat colitis model assessed as body weight recovery compound administered for 5 days post 1 day of TNBS-challenge measured daily during compound dosing. It counts as functional, organism-based.
Experiment [7] deals with Rattus norvegicus. Kind of experiment: Antiinflammatory activity in TNBS-induced Sprague-Dawley rat colitis model assessed as colon weight recovery at 0.1 mg/kg/day, po administered for 5 days post 1 day of TNBS-challenge relative to control. It is filed as functional.
Experiment [8] relates to Rattus norvegicus. Kind of experiment: Antiinflammatory activity in TNBS-induced Sprague-Dawley rat colitis model assessed as colon weight recovery at 1 mg/kg/day, po administered for 5 days post 1 day of TNBS-challenge relative to control. It counts as functional.
Experiment [9] deals with Rattus norvegicus. The experiment is described as follows: Antiinflammatory activity in TNBS-induced Sprague-Dawley rat colitis model assessed as colon weight recovery at 10 mg/kg/day, po administered for 5 days post 1 day of TNBS-challenge relative to control. It counts as functional.
Experiment [10] deals with Rattus norvegicus. The experiment is described as follows: Antiinflammatory activity in po dosed TNBS-induced Sprague-Dawley rat colitis model assessed as reduction in colon edema and adhesion administered for 5 days post 1 day of TNBS-challenge by microscopic analysis. It is filed as functional, organism-based.
Experiment [11] relates to Rattus norvegicus. Kind of experiment: Antiinflammatory activity in po dosed TNBS-induced Sprague-Dawley rat colitis model assessed as recovery of increase in colon wet weight administered for 5 days post 1 day of TNBS-challenge. It is filed as functional, organism-based.
Experiment [12] has as its system Rattus norvegicus. The experiment is described as follows: Antiinflammatory activity in TNBS-induced Sprague-Dawley rat colitis model assessed as inhibition of myeloperoxidase level in colon at 0.1 mg/kg/day, po administered for 5 days post 1 day of TNBS-challenge by colorimetric method relative to control. It counts as functional.
The subject of experiment [13] is Rattus norvegicus. Kind of experiment: Antiinflammatory activity in TNBS-induced Sprague-Dawley rat colitis model assessed as inhibition of myeloperoxidase level in colon at 1 mg/kg/day, po administered for 5 days post 1 day of TNBS-challenge by colorimetric method relative to control. It is filed as functional.
Experiment [14] relates to Rattus norvegicus. The experiment is described as follows: Antiinflammatory activity in TNBS-induced Sprague-Dawley rat colitis model assessed as inhibition of myeloperoxidase level in colon at 10 mg/kg/day, po administered for 5 days post 1 day of TNBS-challenge by colorimetric method relative to control. It is filed as functional.
The species entered for experiment [15] is Rattus norvegicus. The experiment is described as follows: Potency index, ratio of compound efficacy to sulfasalazine efficacy in TNBS-induced Sprague-Dawley rat colitis model assessed as body weight recovery. It counts as functional.
The species named for experiment [16] is Rattus norvegicus. Kind of experiment: Potency index, ratio of compound efficacy to sulfasalazine efficacy in TNBS-induced Sprague-Dawley rat colitis model assessed as colon weight recovery. It counts as functional.
The species named for experiment [17] is Rattus norvegicus. Kind of experiment: Potency index, ratio of compound efficacy to sulfasalazine efficacy in TNBS-induced Sprague-Dawley rat colitis model assessed as inhibition of MPO level in colon. It is filed as functional.
Experiment [18] can be described thus: Antiinflammatory activity in human HT-29 cells assessed as inhibition of TNF-alpha induced BCECF-AM labeled human U937 cell adhesion at 20 mM preincubated for 1 hr followed by stimulation with TNF-alpha for 3 hrs followed by further co-incubation with BCECF-AM labeled human U937 cells for 1 hr by fluorescent/light microscopic analysis. It counts as functional.

The subject of experiment [19] is Rattus norvegicus. The experiment is described as follows: Antiinflammatory activity in TNBS-induced Sprague-Dawley rat colitis model assessed as body weight recovery at 300 mg/kg/day, po administered for 5 days post 1 day of TNBS-challenge measured daily during compound dosing relative to control. It is filed as functional.
The subject of experiment [20] is Rattus norvegicus. Kind of experiment: Antiinflammatory activity in TNBS-induced Sprague-Dawley rat colitis model assessed as colon weight recovery at 300 mg/kg/day, po administered for 5 days post 1 day of TNBS-challenge relative to control. It is filed as functional.
In experiment [21] the test system is Rattus norvegicus. The experiment is described as follows: Antiinflammatory activity in TNBS-induced Sprague-Dawley rat colitis model assessed as inhibition of myeloperoxidase level in colon at 300 mg/kg/day, po administered for 5 days post 1 day of TNBS-challenge by colorimetric method relative to control. It counts as functional.

By inhibition is commonly meant the drop in the measured response relative to a control, in per cent. As to `Cc1nc(N(C)c2ccc(F)cc2)c(C)c(C)c1O`, in experiment [1], the inhibition at 1 µM is 77.2%.

Regarding `Cc1nc(Nc2cccc(F)c2)c(C)c(C)c1O`, the inhibition at 1 µM in experiment [1] came to 16.3%.

Consider `Cc1nc(Nc2ccc(Br)cc2)c(C)c(C)c1O`, for which the inhibition at 1 µM in [1] was 47.2%.

On to `CCCCCCNc1nc(C)c(O)c(C)c1C`, for which the inhibition at 1 µM in experiment [1] was found to be 28.4%.

As for `Cc1nc(N2CCC(C(O)(c3ccccc3)c3ccccc3)CC2)c(C)c(C)c1O`, in experiment [1], the inhibition at 1 µM is -7%.

Take `Cc1nc(Nc2cccc([N+](=O)[O-])c2)c(C)c(C)c1O`: in experiment [1], the inhibition at 1 µM came to 18.5%.

A word on the IC50: it is the concentration needed to halve the response being measured. Broadly, the inhibition in vivo is the drop in the measured response relative to a control, in per cent. With `CCCc1ccc(Nc2nc(C)c(O)c(C)c2C)cc1`, the inhibition at 1 µM in experiment [1] was 77.9%. For the same molecule, the IC50 in experiment [2] was found to be 0.00019 mM. Further, the Activity with Rattus norvegicus [3] is 47.2%; in the experiment with Rattus norvegicus [4], 58.3%; in the experiment with Rattus norvegicus [5] it was 69.9%; in the experiment with Rattus norvegicus [6], “Dose-dependent effect”; in the experiment on Rattus norvegicus [7], 56.6%; in the experiment on Rattus norvegicus [8], 72.6%. The Activity in the experiment on Rattus norvegicus [9] is 88.6%; with Rattus norvegicus [10], “Dose-dependent effect”; in the experiment on Rattus norvegicus [11] it was “Dose-dependent effect”. Besides, in the experiment with Rattus norvegicus [12], the inhibition in vivo at 0.1 mg/kg/day was 55.4%. In the experiment on Rattus norvegicus [13], the inhibition in vivo at 1 mg/kg/day came out at 79.9%. The inhibition in vivo at 10 mg/kg/day in the experiment with Rattus norvegicus [14] was 96.3%. Moreover, the Ratio in the experiment filed under Rattus norvegicus [15], in the experiment filed under Rattus norvegicus [16] and in the experiment listed under Rattus norvegicus [17] was over 300 each time.

Take `Cc1nc(N2CCCCC2)c(C)c(C)c1O`: the inhibition at 1 µM in experiment [1] amounted to 47.9%.

On to `Cc1nc(NC2CCCCC2)c(C)c(C)c1O`, for which the inhibition at 1 µM in [1] came to 36%.

Take `Cc1nc(-n2cccc2)c(C)c(C)c1O`: the inhibition at 1 µM in experiment [1] is 56.1%.

On to `Cc1cccc(Nc2nc(C)c(O)c(C)c2C)c1`, for which the inhibition at 1 µM in [1] was found to be 74%.

With `Cc1nc(N2CCCC2)c(C)c(C)c1O`, in [1], the inhibition at 1 µM was determined as 36.7%.

In the case of `Nc1ccc(O)c(C(=O)O)c1` [MESALAMINE], the inhibition at 1 µM in experiment [1] worked out at 3.8%. The inhibition at 20000 µM in experiment [18] worked out at 52.7%. Moreover, the IC50 in [2] was determined as 18.1 mM.

Regarding `Cc1ccc(N(C)c2nc(C)c(O)c(C)c2C)cc1`, in experiment [1], the inhibition at 1 µM turned out to be 67.4%.

With `Cc1nc(Nc2cccc3ccccc23)c(C)c(C)c1O`, the inhibition at 1 µM in [1] is 52.4%.

Turning to `CCCCCCCCCCc1ccc(Nc2nc(C)c(O)c(C)c2C)cc1`, the inhibition at 1 µM in [1] came out at 76.6%.

Turning to `Cc1nc(N2CCOCC2)c(C)c(C)c1O`, in experiment [1], the inhibition at 1 µM is 67.7%.

Turning to `Cc1nc(N(c2ccccc2)c2ccccc2)c(C)c(C)c1O`, in experiment [1], the inhibition at 1 µM came to 41.3%.

Take `Cc1nc(NC2CCCC2)c(C)c(C)c1O`: the inhibition at 1 µM in experiment [1] is 73.3%.

Regarding `Cc1nc(Nc2ccc(Oc3ccccc3)cc2)c(C)c(C)c1O`, the inhibition at 1 µM in experiment [1] was 17.3%.

Consider `Cc1nc(Nc2cccc(OC(C)C)c2)c(C)c(C)c1O`, for which, in experiment [1], the inhibition at 1 µM was 24.9%.

With `Cc1nc(NCc2ccc(-c3ccccc3)cc2)c(C)c(C)c1O`, in experiment [1], the inhibition at 1 µM amounted to 1.3%.

On to `Cc1nc(Nc2cccc(Br)c2)c(C)c(C)c1O`, for which the inhibition at 1 µM in experiment [1] is 20.5%.

Take `Nc1cccc2c1CN(C1CCC(=O)NC1=O)C2=O` (stereo not given) [LENALIDOMIDE]: the inhibition at 1 µM in experiment [1] amounted to 64.6%.

With `Cc1nc(Nc2ccc(Cl)cc2)c(C)c(C)c1O`, the inhibition at 1 µM in experiment [1] was 28.4%.

Regarding `Cc1nc(Nc2ccc3c(c2)OCO3)c(C)c(C)c1O`, in experiment [1], the inhibition at 1 µM amounted to 26.5%.

On to `Cc1nc(Nc2ccc(F)cc2)c(C)c(C)c1O`, for which the inhibition at 1 µM in experiment [1] stood at 71.5%.

As for `Cc1nc(N(c2ccccc2)c2ccc3ccccc3c2)c(C)c(C)c1O`, in experiment [1], the inhibition at 1 µM amounted to 13.4%.

Take `Cc1cccc(N(C)c2nc(C)c(O)c(C)c2C)c1`: in experiment [1], the inhibition at 1 µM came to 63.2%.

`Cc1nc(N2CCN(C)CC2)c(C)c(C)c1O`: the inhibition at 1 µM in experiment [1] is 47.6%.

In the case of `Cc1nc(Nc2ccccc2)c(C)c(C)c1O`, the inhibition at 1 µM in experiment [1] was 73.6%.

As to `Cc1nc(N)c(C)c(C)c1O`, the inhibition at 1 µM in [1] worked out at 22.9%.

Consider `Cc1nc(Nc2ccc([N+](=O)[O-])cc2)c(C)c(C)c1O`, for which the inhibition at 1 µM in [1] stood at 39%.

As for `Cc1nc(NCc2ccccc2)c(C)c(C)c1O`, the inhibition at 1 µM in experiment [1] is 35.7%.

In the case of `Cc1nc(N(C)c2ccccc2)c(C)c(C)c1O`, in experiment [1], the inhibition at 1 µM was 58.1%.

On to `Cc1nc(Nc2cccc(Cl)c2)c(C)c(C)c1O`, for which the inhibition at 1 µM in experiment [1] stood at 42.5%.

`Cc1ccc(Nc2nc(C)c(O)c(C)c2C)cc1`: the inhibition at 1 µM in experiment [1] is 84.4%.

For `COc1ccc(Nc2nc(C)c(O)c(C)c2C)cc1`, the inhibition at 1 µM in experiment [1] is 14%.

For `Cc1nc(Nc2ccccc2C(C)C)c(C)c(C)c1O`, the inhibition at 1 µM in experiment [1] came out at 37.8%.

For `Cc1nc(N(C)c2ccc(Cl)cc2)c(C)c(C)c1O`, in experiment [1], the inhibition at 1 µM amounted to 65.2%.

For `Cc1nc(Nc2ccc(C(C)(C)C)cc2)c(C)c(C)c1O`, the inhibition at 1 µM in experiment [1] came to 27.3%.

Consider `Cc1nc(NCCCO)c(C)c(C)c1O`, for which, in experiment [1], the inhibition at 1 µM is 19%.

In the case of `O=C(O)c1cc(/N=N/c2ccc(S(=O)(=O)Nc3ccccn3)cc2)ccc1O` [SULFASALAZINE], the Activity in the experiment with Rattus norvegicus [19] is listed as 55.6%; in the experiment on Rattus norvegicus [20] it was 67.1%. Besides, the inhibition in vivo at 300 mg/kg/day in the experiment on Rattus norvegicus [21] stood at 58.6%.

`Cc1nc(NCc2ccc(C(C)(C)C)cc2)c(C)c(C)c1O`: the inhibition at 1 µM in experiment [1] worked out at 49.2%.

Turning to `CCCCCCCCCCCCCCCCNc1nc(C)c(O)c(C)c1C`, the inhibition at 1 µM in [1] stood at 26.9%.
